Values after ≈ are worked out from the molar mass of the structure shown.
Columns and labels:
Assay type in all cases: cell-based
[1] = test system: Alternaria alternata; assay: Fungus resistance test for painted surfaces containing antifungal additives (defacement rating); details: +100 μg/mL in Olympic Home paint
Experimental: (§1) A Defacement Rating is measured by estimating the percentage of surface defacement with 10 being no defacement and 0 begin completely defaced.
(§2) This test was used to evaluate the resistance of paint films containing antifungal additives to surface fungal growth.
(§3) Olympic® Home interior flat latex paint (PPG Industries, Pittsburgh, Pa.) and Valspar® QuikHide White flat interior paint (Valspar Corporation, Minneapolis, Minn.) were used for all studies unless otherwise noted. Stock solutions of the antifungal additives of interest were prepared in reagent grade dimethyl sulfoxide (DMSO; Alfa Aesar, Ward Hill, Mass.). Additives were spiked (by adding appropriate amounts of the antifungal stock solutions) into the liquid paint at specified concentrations. Samples of the additive-spiked paint were vigorously mixed with a vortex mixer for at least one minute to ensure uniform dispersion of the additive in the paint. […] Studies that use other brands of paint followed the same protocol as described for those using the Olympic® Home interior flat latex paint and Valspar® QuikHide paint.
(§4) Test surfaces were prepared in triplicate. In most cases, the tested conditions were repeated on a different date, again in triplicate. […] Two coats of paint were applied with a polyester brush to completely cover both faces of the filter paper disc, allowing at least four hours drying time between coats.
(§5) Nutrient-Salts Agar (NSA) medium was prepared according to ASTM method G21-13 in 100×15 mm sterile polystyrene petri dishes (VWR® Radnor, Pa.) with a solidified agar layer of about 3 to about 6 mm (⅛ to ¼ in.) in depth. The agar was allowed to solidify for at least 24 hours before being used. The painted test filter paper discs were placed in the center of the agar plates in a biosafety hood while wearing clean nitrile gloves.
(§6) The paint coatings were evaluated against three representative cellulose-supportable fungi: Stachybotrys chartarum, Penicillium chrysogenum, and Alternaria alternata. […] Fungal isolates of Alternaria alternata and Penicillium chrysogenum were obtained from the Plant Pathology and Environmental Microbiology Department at Penn State University.
(§7) A spore suspension of each of these fungi was prepared by pouring a 20-mL portion of autoclaved deionized water containing 0.01% Tween® 20 onto a subculture of each fungal species. Spores were counted with the use of a hemocytometer (Hausser Scientific, Horsham, Pa.) under a compound light microscope. Spore suspensions of Stachybotrys chartarum and Penicillium chrysogenum were diluted to 1×10^6 spores/mL with autoclaved deionized water. Spore suspensions of Alternaria alternata were used “as is” in the range of 200,000 to 400,000 spores/mL.
(§8) Painted test surfaces were inoculated with a spray bottle or with a sterile cotton-tipped applicator. To inoculate the sample with a spray bottle, the spore suspension was sprayed twice on the painted test discs with an autoclaved spray bottle that delivered approximately 0.14 g of fluid per spray. To inoculate the sample with a cotton-tipped applicator, an autoclaved cotton-tipped applicator was submerged in approximately 400 μL of the spore inoculum solution (spore concentrations described above) and applied evenly over the surface of the painted test surface twice. A fresh autoclaved cotton-tipped applicator was used for the application of each painted disc. All the paint studies with Alternaria alternata and Stachybotrys chartarum were inoculated using the spray bottle method. For studies with Penicillium chrysogenum using Olympic® Home paint, the spray bottle inoculation method was used. For studies with Penicillium chrysogenum using Valspar® QuikHide paint, the cotton-tipped applicator inoculation method was used.
(§9) After inoculation, the NSA agar plates were sealed with Parafilm®.

[2] = test system: Penicillium chrysogenum; assay: as above
Experimental: as §1, §2, §3, §4, §5, §6, §7, §8, §9

[3] = test system: Stachybotrys chartarum; assay: as above; details: +100 μg/mL in Olympic Home paint
Experimental: as §1, §2, §3, §4, §5, §6, §7, §8, §9

[4] = test system: Alternaria alternata; assay: Fungus resistance test after painting over fungal growth (defacement rating); details: painted over fungal growth, +100 μg/mL in Olympic Home paint
Description: (§10) In this series of experiments, fungal growth was allowed to cover a painted surface (surface containing 2 coats of the unaltered paint) to a defacement rating of 3-5, forming a ‘contaminated surface’. […] The paint application was extended approximately 1-2 cm beyond the edge of the disc onto the NSA medium. Each formulation used a separate brush to avoid cross contamination. The re-painted discs were placed back into the humid environment with elevated temperature to encourage fungal growth.
(§11) This test was used to evaluate the ability of paint films containing antifungal additives to prevent the re-emergence of fungal growth after painting over existing growth.
(§12) Olympic® Home interior flat latex paint (PPG Industries, Pittsburgh, Pa.) and Valspar® QuikHide White flat interior paint (Valspar Corporation, Minneapolis, Minn.) were used for the experiments in this study unless specified. Stock solutions of the antifungal additives of interest were prepared in reagent grade dimethyl sulfoxide (DMSO; Alfa Aesar, Ward Hill, Mass.). Additives were spiked (by adding appropriate amounts of the antifungal stock solutions) into the liquid paint at specified concentrations. Samples of additive-spiked paint were vigorously mixed with a vortex mixer for at least one minute to insure uniform dispersion of the additive in the paint. […] Studies that used other brands of paint followed the same protocol as described for those using the Olympic® Home interior flat latex paint.
as §4
as §5, with “media” for “medium”, “from” for “of about”, “to” for “to about”
as §6, with “representative” for “representative cellulose-supportable”
(§13) A spore suspension of each of these fungi was prepared by pouring a 20-mL portion of autoclaved deionized water containing 0.01% Tween® 20 onto a subculture of each fungal species. Spores were counted with the use of a hemocytometer (Hausser Scientific, Horsham, Pa.) under a microscope. Spore suspensions of Stachybotrys chartarum and Penicillium chrysogenum were diluted to 1×10^6 spores/mL with autoclaved deionized water. Spore suspensions of Alternaria alternata were used “as is” in the range of 200,000 to 400,000 spores/mL.
(§14) Painted test surfaces were inoculated with a spray bottle or with a cotton-tipped applicator. To inoculate the sample with a spray bottle, the spore suspension was sprayed twice on the painted test discs with a spray bottle that delivered approximately 0.14 g of fluid per spray. To inoculate the sample with a cotton-tipped applicator, an autoclaved cotton-tipped applicator was submerged in approximately 400 μL of the inoculum solution and applied evenly over the surface of the painted test surface twice.

[5] = test system: Penicillium chrysogenum; assay: as above; details: painted over fungal growth, +200 μg/mL in Valspar QuikHide paint
Description: as §10, §11, §12, §4
as §5, with “media” for “medium”, “from” for “of about”, “to” for “to about”
as §6, with “representative” for “representative cellulose-supportable”
as §13, §14

[6] = test system: Stachybotrys chartarum; assay: as above; details: for Average defacement rating ± standard deviation: painted over fungal growth, +100 μg/mL in Olympic Home paint; for ability to inhibit Stachybotrys chartarum re-emergence on the surfaces: painting over contaminated surfaces, paints containing 100 μg/mL, after 7 days
Description: as §10, §11, §12, §4
as §5, with “media” for “medium”, “from” for “of about”, “to” for “to about”
as §6, with “representative” for “representative cellulose-supportable”
as §13, §14

[7] = test system: Alternaria alternata; assay: 3 day MIC, broth microdilution in 25% PDB; details: 72 h, 25% PDB, read-out: 3 day MIC
Experimental: (§15) Stock solutions (concentrations of between 4,000 μg/mL to 10,000 μg/mL; stored at −18° C.) of the above antifungals were prepared in dimethyl sulfoxide (DMSO). The stock solutions were further diluted into sterile 25% potato dextrose broth (PDB) so that the diluted solutions could be used for the antifungal susceptibility studies. This way, a typical microdilution study would reach a final ratio of about 0.5-2% v/v of DMSO in 25% PDB.
(§16) Spore inocula were prepared in sterile distilled water with 0.1% Tween® 20 (a polysorbate surfactant), and a hemocytometer was used to determine the spore density. Typically, the spore inoculum was prepared fresh prior to each study, and the inoculum was appropriately diluted to a final concentration of 0.4-1×10^5 spores/mL or colony-forming unit (CFU)/mL in each study. The spore suspension can be stored in a refrigerator at 4° C. for up to one week.
(§17) The studies were performed in flat bottom, 96-well microtiter plates (Greiner Bio-One, Frickenhausen, Germany).
(§18) Plates sealed with clear polyester film (VWR, Radnor, Pa.) were incubated at a temperature of about 25° C. The progress of fungal growth was monitored at 48 hours and 72 hours.

[8] = test system: Stachybotrys chartarum; assay: 3 day MIC, broth microdilution in 25% PDB; details: 72 h, 25% PDB, read-out: 3 day MIC
Experimental: as §15, §16, §17, §18

[9] = test system: Aspergillus flavus; assay: 3 day MIC, broth microdilution in 25% PDB; details: 72 h
Experimental: as §15, §16
(§19) The minimal inhibitory concentrations (MICs) for individual antifungal agents were determined by following a modified broth microdilution protocol CLSI (Clinical and Laboratory Standards Institute) M38-A2 [Clinical and Laboratory Standards Institute (2008) Reference method for broth dilution antifungal susceptibility testing of filamentous fungi—2nd edition: Approved Standard M38-A2, CLSI, Wayne, Pa.] where 25% potato dextrose broth (PDB) was used as the medium. The studies were performed in flat bottom, 96-well microtiter plates (Greiner Bio-One, Frickenhausen, Germany).
as §18

[10] = test system: Aspergillus fumigatus; assay: 3 day MIC, broth microdilution in 25% PDB; details: 72 h
Experimental: as §15, §16, §19, §18

[11] = test system: Aspergillus niger; assay: 3 day MIC, broth microdilution in 25% PDB; details: 72 h
Experimental: as §15, §16, §19, §18

[12] = test system: Aureobasidium pullulans; assay: 3 day MIC, broth microdilution in 25% PDB; details: 72 h
Experimental: as §15, §16, §19, §18

[13] = test system: Fusarium oxysparum ST-33; assay: 3 day MIC, broth microdilution in 25% PDB; details: ST33, 72 h
Experimental: as §15, §16, §19, §18

[14] = test system: Mucor spp.; assay: 3 day MIC, broth microdilution in 25% PDB; details: 72 h
Experimental: as §15, §16, §19, §18

[15] = test system: Rhizopus spp.; assay: 3 day MIC, broth microdilution in 25% PDB; details: 72 h
Experimental: as §15, §16, §19, §18

Question: What does the source list for OB1OCc2ccccc21 [Compound B0, 2-(hydroxymethyl)-benzene boronic acid hemiester]?
Answer: Average defacement rating ± standard deviation ([1]; 7 days): 2.3 ± 2.3; Average defacement rating ± standard deviation ([1]; 14 days): 0.5 ± 1.8; Average defacement rating ± standard deviation ([1]; 21 days): 0.0 ± 0.0; Average defacement rating ± standard deviation ([2]; +100 μg/mL in Olympic Home paint, 7 days): 2.7 ± 0.8; Average defacement rating ± standard deviation ([2]; +100 μg/mL in Olympic Home paint, 14 days): 0.0 ± 0.0; Average defacement rating ± standard deviation ([2]; +100 μg/mL in Olympic Home paint, 21 days): 0.0 ± 0.0; Average defacement rating ± standard deviation ([2]; +200 μg/mL in Olympic Home paint, 7 days): 10.0 ± 0.0; Average defacement rating ± standard deviation ([2]; +200 μg/mL in Olympic Home paint, 14 days): 6.8 ± 4.0; Average defacement rating ± standard deviation ([2]; +200 μg/mL in Olympic Home paint, 21 days): 5.0 ± 5.5; Average defacement rating ± standard deviation ([2]; +200 μg/mL in Valspar QuikHide paint, 7 days): 10.0 ± 0.0; Average defacement rating ± standard deviation ([2]; +200 μg/mL in Valspar QuikHide paint, 14 days): 6.8 ± 4.0; Average defacement rating ± standard deviation ([2]; +200 μg/mL in Valspar QuikHide paint, 21 days): 5.0 ± 5.5; Average defacement rating ± standard deviation ([3]; 7 days): 0.7 ± 1.3; Average defacement rating ± standard deviation ([3]; 14 days): 0.0 ± 0.0; Average defacement rating ± standard deviation ([3]; 21 days): 0.0 ± 0.0; Average defacement rating ± standard deviation ([4]; 7 days): 2.1 ± 1.6 (6); Average defacement rating ± standard deviation ([4]; 14 days): 1.0 ± 1.3 (6); Average defacement rating ± standard deviation ([4]; 21 days): 0.4 ± 0.6 (6); Average defacement rating ± standard deviation ([5]; 7 days): 0.0 ± 0.0 (9); Average defacement rating ± standard deviation ([5]; 14 days): 0.0 ± 0.0 (9); Average defacement rating ± standard deviation ([5]; 21 days): 0.0 ± 0.0 (9); Average defacement rating ± standard deviation ([6]; 7 days): 6.1 ± 3.3 (9); Average defacement rating ± standard deviation ([6]; 14 days): 4.4 ± 3.0 (9); Average defacement rating ± standard deviation ([6]; 21 days): 3.9 ± 2.9 (9)

Question: For Cc1ccc2c(c1)COB2O [Compound B1, 5-Methyl-1,3-dihydro-2,1-benzoxaborol-1-ol], which MIC [7] is on record?
Answer: Its MIC is 6.3 µg/mL (≈ 42.6 µM).

Question: And the MIC [8]?
Answer: The MIC was 0.5 µg/mL (≈ 3.38 µM).

Question: What about the MIC [9] of the same compound?
Answer: Its MIC is 2 µg/mL (≈ 13.5 µM).

Question: And the MIC [10]?
Answer: The MIC was 0.25 µg/mL (≈ 1.69 µM).

Question: And the MIC [11]?
Answer: Its MIC is 2 µg/mL (≈ 13.5 µM).

Question: And the MIC [12]?
Answer: The MIC was 1 µg/mL (≈ 6.76 µM).

Question: What about the MIC [13] of the same compound?
Answer: Its MIC is 1 µg/mL (≈ 6.76 µM).

Question: What about the MIC [14] of the same compound?
Answer: Its MIC is 1 µg/mL (≈ 6.76 µM).

Question: And the MIC [15]?
Answer: The MIC was 16 µg/mL (≈ 108 µM).

Question: And the “ability to inhibit Stachybotrys chartarum re-emergence on the surfaces” value [6]?
Answer: Its value is “very little ability to inhibit”.

Question: For OB1OCCc2cc(F)ccc21 [Compound B5, 6-fluoro-3,4-dihydro-1H-2,1-benzoxaborinin-1-ol], which MIC [7] is on record?
Answer: Its MIC is 200 µg/mL (≈ 1210 µM).

Question: And the MIC [8]?
Answer: The MIC was 6.3 µg/mL (≈ 38 µM).

Question: And the “ability to inhibit Stachybotrys chartarum re-emergence on the surfaces” value [6]?
Answer: The value was “very little ability to inhibit”.

Source: patent publication US10160867B2, “Benzoxaborole-containing coating resistant to cellulose-supportable fungus” (THE PENN STATE RESEARCH FOUNDATION, priority 2015, dated 2018)
